From PubChem BioAssay AID1996
≈ marks a conversion by molar mass, not a printed value.

settings: buffer; pH 7.4; 200.0 µM

SMILES | solubility kinetic [µg/mL]
C=CCn1c(SCC(C)=O)nc2sc3c(c2c1=O)CCC3 | 4.6 (≈ 14.4 µM)
O=C(NC1(C(F)(F)F)N=C2SCCN2C1=O)c1ccccc1F (stereo unspecified) | 50.5 (≈ 145 µM)
CCOC(=O)c1c(C)oc2c1c(C=NCCC(=O)O)c(O)c1ccccc12 | < 0.8
Cc1cc(C(=O)CN2C(=O)NC(C)(c3cc(F)ccc3F)C2=O)c(C)n1C1CC1 (stereo unspecified) | 48.9 (≈ 122 µM)
CC(=O)N1CCN(c2ccc(NC(=O)c3ccc(F)cc3)cc2)CC1 | 10.6 (≈ 31 µM)
Cc1nc(Nc2ccccc2)sc1C(=O)c1ccccc1 | 2.1 (≈ 7.13 µM)
O=C(O)c1ccccc1C(=O)Nc1ccccc1NC(=O)c1ccccc1C(=O)O | > 60.7
O=C(NC(=S)Nc1ccc(O)cc1)c1cncc(Br)c1 | > 52.8
Cc1ccc(S(=O)(=O)N2CCC(C(=O)NCC3CC3)CC2)cc1 | 31.7 (≈ 94.2 µM)
Cc1ccc(OCC(=O)O/N=C(\N)c2cccc([N+](=O)[O-])c2)cc1C | 1.8 (≈ 5.24 µM)
COc1ccc(CCNC(=O)c2c(C)nc3ccccn23)cc1OC | > 50.9
O=C(Nc1nccs1)C1=COCCO1 | > 31.8
O=C(NCc1ccccc1)c1cc2ccccc2oc1=O | 2.7 (≈ 9.67 µM)
Cc1ccc(OCCCCCCN2CCNCC2)cc1.O=C(O)C(=O)O | > 55
CC(=NCCCO)c1c(O)[nH]c(=O)[nH]c1=O | > 34.1
O=C(NC1CCCCC1)C(=S)NCCc1ccccc1 | 1.4 (≈ 4.82 µM)
S=C1NCN(CCc2ccccc2)CN1 | > 33.2
CC1N(C(=O)N(C)C)CCN1S(=O)(=O)c1ccccc1 (stereo unspecified) | > 44.6
O=S(=O)(Cc1ccccc1)NCCc1ccc(F)cc1 | 34.3 (≈ 117 µM)
Cc1cc2ccccn2c1C(=O)c1cccc(F)c1 | 4.9 (≈ 19.3 µM)
COCCNC(=O)c1ccccc1NC(=O)CSc1ccc(C)cc1 | 36.6 (≈ 102 µM)
COc1ccc(/C=C/C(=O)OCC(=O)c2ccc[nH]2)cc1 | 5 (≈ 17.5 µM)
CCN(Cc1ccncc1)C(=O)c1ccc(C)c(S(=O)(=O)N2CCCCC2)c1 | > 60.2
Cc1ccc(S(=O)(=O)NC(Cc2ccccc2)C(=O)O)cc1 (stereo unspecified) | > 47.9
CCOc1ccccc1NC(=S)NC(=O)c1ccco1 | 1.9 (≈ 6.54 µM)

SMILES | solubility kinetic [µg/mL]
O=C(Nc1ccc(N2CCCCCC2)cc1)c1ccc[nH]1 | 18.7 (≈ 66 µM)
COC(=O)C1CN(C(=O)C(C)Oc2ccccc2F)c2ccccc2O1 (stereo unspecified) | > 53.9
COc1ccc2cc(Br)ccc2c1CC(=O)N1CCCC1 | 3.2 (≈ 9.19 µM)
Cc1c(C(=O)NC2CCCC2)oc2ccccc12 | 33.9 (≈ 139 µM)
CSc1ccc(Cl)c(C(=O)N2CCN(CC(=O)N3CCCC3)CC2)c1 | > 57.3
CC(NC(=O)COC(=O)Cc1ccc(Cl)cc1)c1ccccc1 (stereo unspecified) | > 49.8
O=S(=O)(/N=C/c1c(O)ccc2ccccc12)c1ccccc1 | > 46.7
O=C(CN1CCCCC1)Nc1nc(-c2ccc(Cl)cc2)cs1 | < 0.2
O=C1CN(C(=O)c2ccc(Cl)nc2)c2ccccc2N1 | 33.3 (≈ 116 µM)
COc1ccc(C)cc1S(=O)(=O)N1CCCCCC1 | 40.7 (≈ 144 µM)
CCCNC(=O)c1ccccc1SCc1c(C)noc1C | > 45.7
CC(=O)NCCc1nc2ccccc2n1CCOc1cccc(C)c1 | > 50.6
O=C(CNC(=O)c1ccco1)Nc1ccc(F)c(Cl)c1 | 2.5 (≈ 8.43 µM)
CC1(NC(=O)CCc2nc3ccccc3c(=O)[nH]2)CCS(=O)(=O)C1 (stereo unspecified) | 49.2 (≈ 141 µM)
Nc1ccccc1SCC(O)Cn1ccc2ccccc21 (stereo unspecified) | > 44.8
CCN(CC)c1ccc(CNCCc2ccccc2F)cc1.Cl | > 50.5
COc1cccc(S(=O)(=O)Nc2noc3ccccc23)c1 | 37.6 (≈ 124 µM)
O=C(COC(=O)c1cc(=O)[nH]c2ccccc12)NCc1cccs1 | > 51.4
O=S(=O)(CCN1CCSCC1)c1ccc(Cl)cc1 | 41.3 (≈ 135 µM)
CCSc1nnc(SCC(=O)Nc2cc(C)on2)s1 | > 47.5
Cc1ccc2c(c1)c1c3n2CCN(CC#N)C3CCC1 (stereo unspecified) | 1.1 (≈ 4.15 µM)
CC(=O)c1ccc(NC(=O)CN2CCCC2)cc1 | > 36.9
Cc1nc(SCc2ccc(F)cc2)c2oc3ccccc3c2n1 | < 0.3
CN1OC[C@@H]2COc3ccc4ccccc4c3[C@@H]21 | 33.1 (≈ 137 µM)
CC(=NCCCn1ccnc1)c1c(O)n(-c2ccccc2)c(=O)[nH]c1=O | > 53

SMILES | solubility kinetic [µg/mL]
O=S(=O)(c1ccc(F)cc1)N1CCN(c2ncccn2)CC1 | 8.3 (≈ 25.7 µM)
COC(=O)Cn1c2ccc(OC)cc2c2nc(C)sc21 | > 43.6
Cc1ccccc1C(=O)Nc1scc(-c2ccc(Br)cc2)c1C(=O)O | 3.5 (≈ 8.41 µM)
COc1ccc(CCNC(=O)COc2ccc(C)nc2[N+](=O)[O-])cc1 | > 51.8
CCc1ccccc1N1C(=O)[C@@H]2Cc3ccccc3CN2C1=O | 43.1 (≈ 141 µM)
O=C1COc2ccc(C(=O)C[n+]3cccc(O)c3)cc2N1.[Cl-] | > 48.1
COc1ccc(C)cc1NC(=O)C(=O)N1CCCC1 | 39.1 (≈ 149 µM)
COc1ccccc1CC(=O)Nc1ccc2c(C)cc(=O)oc2c1 | 3.6 (≈ 11.1 µM)
CCC(=O)NC1CCN(C(=S)NC)CC1 | > 34.4
CC(=O)c1ccc(OCC(=O)NC2CCCCCC2)cc1 | > 43.4
Cn1cc(S(=O)(=O)N2CCOCC2)cc1C(=O)O | > 41.1
CN(C)c1cccc(Oc2nc3c(c(=O)n(C)c(=O)n3C)n2C)c1 | 32.4 (≈ 98.4 µM)
NC(=O)C1CCN(C(=O)Cc2ccc(-c3ccccc3)cc2)CC1 | > 48.4
CN(C(=O)COC(=O)c1cccnc1Cl)C1CCCCC1 | > 46.6
COc1cc(C(F)(F)F)c(C(=O)NCc2cccc(Cl)c2)cn1 | 5.3 (≈ 15.4 µM)
CN(C)C(=O)c1cc(C(=O)c2ccc(C(F)(F)F)cc2)c[nH]1 | 1.6 (≈ 5.16 µM)
O=[N+]([O-])c1c(NCc2ccco2)ccc2nonc12 | 38.4 (≈ 148 µM)
COc1ccccc1C(=O)NC(CCSC)C(=O)NC1CC1 (stereo unspecified) | > 48.4
CCOc1ccc(Nc2nc(N)c([N+](=O)[O-])c(NCc3ccccc3)n2)cc1 | < 0.1
O=C(Nc1cccc(S(=O)(=O)NCc2ccco2)c1)c1ccc(Cl)cc1 | 3 (≈ 7.68 µM)
CCC1Oc2ccc(C)cc2N(CC(=O)NCc2cccs2)C1=O (stereo unspecified) | 5.2 (≈ 15.1 µM)
COc1ccc(-c2nnc(SCC(=O)NC3CC3)o2)cc1 | > 45.8
Cc1ccc(Nc2nc(N)c([N+](=O)[O-])c(NCCO)n2)cc1 | 18.7 (≈ 61.5 µM)
CN1C(=S)SC2CS(=O)(=O)CC21C (stereo unspecified) | > 35.6
COc1cccc(CC(=O)Nc2ccc(-c3csc(C)n3)cc2)c1 | 2.5 (≈ 7.39 µM)

SMILES | solubility kinetic [µg/mL]
Cc1cc(C)cc(NS(=O)(=O)c2c(C)[nH]c(=O)[nH]c2=O)c1 | > 46.4
O=C(CN1CCCCCC1)Nc1ccccc1Cl | 24.9 (≈ 93.3 µM)
COc1cccc(CN2CCNCC2)c1OC | 20.3 (≈ 85.9 µM)
CC(C)OP(=O)(OC(C)C)C(C)NC(=O)Cc1ccccc1 (stereo unspecified) | 44.4 (≈ 136 µM)
O=C(c1ccc(F)cc1)N1CCC2(CC1)OCCO2 | 39.2 (≈ 148 µM)
Cc1cc(=O)n(C)c2ccc(S(=O)(=O)N3CCOCC3)cc12 | 46.5 (≈ 144 µM)
O=C(Nc1ccc(CSc2ccccc2)cc1)c1ccco1 | < 0.7
O=C(NC1CCOc2ccccc21)C1CCCC1 (stereo unspecified) | > 36.8
COc1cc(C)nc(-n2nc(C)cc2OC)n1 | > 35.1
Cc1ccc(S(=O)(=O)N2CCC(C(=O)NCc3ccccc3CN3CCCC3)CC2)cc1 | 66.3 (≈ 146 µM)
O=C(O)c1ccccc1C(=O)Nc1nc(-c2ccc3ccccc3c2)cs1 | > 56.2
O=C(Nc1ccc(F)cc1)Nc1ccc2c(c1)OCO2 | 0.7 (≈ 2.55 µM)
CN(C)C(=O)CSc1nnc(Cc2ccc3c(c2)OCO3)o1 | > 48.2
Cc1ccc(-n2c(N)c(Br)c(=O)[nH]c2=O)cc1C | > 46.5
CCOC(=O)C(C)Oc1c(C(=O)OC)sc2ncccc12 (stereo unspecified) | 38.2 (≈ 123 µM)
Cc1cc(NC(=O)c2cccc([N+](=O)[O-])c2)no1 | < 0.2
O=c1c2ccccc2nc(/C=C/c2c[nH]c3ccccc23)n1CCO | 8.6 (≈ 26 µM)
O=C(NCCC(=O)N1CCN(C(=O)c2ccco2)CC1)c1ccccc1Cl | > 58.5
COc1ccc(C(=O)Nc2ccc(N3CCCC3)cc2)cc1Br | < 0.4
Cc1c(CC(=O)Nc2ccc(Cl)cc2)sc2ccc(Cl)cc12 | < 0.8
CN(C)c1ccc(CNCC2CCCO2)cc1.Cl (stereo unspecified) | > 40.6
COc1cccc(/C=C/C(=O)OCC(=O)NC2CC2)c1OC | 24 (≈ 78.6 µM)
CCOc1ccc(S(=O)(=O)N(C)CC(=O)NC2CC2)cc1 | > 46.9
O=S(=O)(NCc1ccco1)c1ccc(Cl)s1 | > 41.7
Cc1nccn1CC(O)COc1ccc([N+](=O)[O-])cc1 (stereo unspecified) | > 41.6

SMILES | solubility kinetic [µg/mL]
O=C(c1cc2ccccc2s1)N1CCN(c2ccccn2)CC1 | 8.9 (≈ 27.5 µM)
Cc1c(N2C(=O)CSC2c2ccco2)c(=O)n(-c2ccccc2)n1C (stereo unspecified) | > 53.3
COc1ccc(Cc2n[nH]c(=S)o2)cc1 | > 33.3
CCOC(=O)c1cn2nc(Oc3cccc(F)c3)ccc2n1 | > 45.2
OCc1c(Cl)nc2ccccn12 | > 27.4
Cc1[nH]c2ccc(C(C)C)cc2c1CC(=O)O | > 34.7
O=C(NCc1ccc(F)cc1)c1ccncc1 | 34.2 (≈ 149 µM)
Cc1ccc(C(=O)NC(C)c2ccc(-n3ccnc3)cc2)c(C)c1 (stereo unspecified) | 46 (≈ 144 µM)
COc1ccccc1C(=O)C1CCCN(Cc2cnc(C)s2)C1 (stereo unspecified) | > 49.6
CC(=O)Nc1ccccc1C(=O)OCC(=O)Nc1ncccn1 | > 47.1
O=C1c2cccc3cccc(c23)C(=O)N1c1ccc(O)cc1 | < 0.6
COCCNC(=O)CN1CCCCCC1.Cl | 34.8
O=C(Cn1c(=O)n(CC2CS2)c2ccccc21)N1CCCCCC1 (stereo unspecified) | 44.3 (≈ 128 µM)
COc1ccccc1N(C)S(=O)(=O)c1ccc(C(=O)O)cc1 | > 48.2
COc1ccccc1C(=O)COC(=O)CN1C(=O)c2ccccc2C1=O | 6.4 (≈ 18.1 µM)
Brc1ccc(-c2nc(-c3ccncc3)no2)cc1 | < 0.2
Cn1cccc1CNC(=S)Nc1ccccc1F | > 39.5
O=C1CSC(c2ccccc2)N1CCc1ccccc1 (stereo unspecified) | 29.6 (≈ 104 µM)
O=C(c1cc(S(=O)(=O)N2CCOCC2)ccc1Cl)N1CCCCC1CO (stereo unspecified) | > 60.4
Cc1ccc(NC(=O)c2ccc3[nH]c(=O)c(=O)[nH]c3c2)nc1 | 8.7 (≈ 29.4 µM)
C=CCn1c(O)c(C=NC2CCN(Cc3ccccc3)CC2)c(=O)[nH]c1=O | 54.1 (≈ 147 µM)
